Five compounds from PMC6150378, “Chemical Constituents from the Flower of Hosta plantaginea with Cyclooxygenases Inhibition and Antioxidant Activities and Their Chemotaxonomic Significance” (Molecules : A Journal of Synthetic Chemistry and Natural …, 2017) can be followed below.

Test [1] can be described thus: Antioxidant assay: DPPH radical-scavenging activity. To be noted: DPPH method; regression using five concentrations (500, 200, 100, 50, 25 μM); 517 nm, 40 min at 30 °C. The method, then: DPPH radical-scavenging activity of the sample was measured as previously described with minor modifications. In a 96-well microplate, 150 μL of DPPH solution (200 μM) was added to 50 μL of the test sample in methanol at different concentrations. The OD values of the reaction mixtures was recorded at 517 nm using a Multiskan Go (Thermo Fisher Scientific, Inc., Waltham, MA, USA) for 40 min at 30 °C. The DPPH radical scavenging activity was calculated by the following equation: DPPH scavenging activity % = […], where Asample represents the absorbance of sample and DPPH, Ablank represents the absorbance of sample and CH3OH, Acontrol represents the absorbance of DPPH and CH3OH. […] L-ascorbic acid was used as the positive control in this experiment. All tests were run in triplicate, and values obtained from experiments were averaged.
(DPPH is a stable violet radical that fades when it is reduced.)

Test [2] concerns the target T1, ovine COX-2 (Ovis aries, UniProt P79208).
T1 sequence (P79208 17-603): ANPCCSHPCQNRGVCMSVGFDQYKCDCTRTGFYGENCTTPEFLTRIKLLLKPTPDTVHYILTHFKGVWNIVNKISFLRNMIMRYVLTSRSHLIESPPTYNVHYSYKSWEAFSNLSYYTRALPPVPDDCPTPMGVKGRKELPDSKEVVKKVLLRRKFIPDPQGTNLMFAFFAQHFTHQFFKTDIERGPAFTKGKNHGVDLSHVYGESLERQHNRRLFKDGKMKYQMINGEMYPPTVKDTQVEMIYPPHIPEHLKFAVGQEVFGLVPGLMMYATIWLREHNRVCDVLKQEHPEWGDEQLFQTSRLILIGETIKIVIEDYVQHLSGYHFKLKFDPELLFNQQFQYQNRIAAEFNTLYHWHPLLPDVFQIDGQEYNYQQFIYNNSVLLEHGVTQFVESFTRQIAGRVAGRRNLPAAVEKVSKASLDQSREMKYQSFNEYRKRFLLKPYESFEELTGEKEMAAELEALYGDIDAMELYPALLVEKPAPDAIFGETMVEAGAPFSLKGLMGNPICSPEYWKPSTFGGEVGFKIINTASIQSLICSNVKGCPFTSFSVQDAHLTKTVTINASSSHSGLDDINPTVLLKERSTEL
Source text: (§1) 2,2-Di-phenyl-1-picrylhydrazyl (DPPH) (Sigma Corporation, Ronkonkoma, New York, NY, USA), L-cysteine methyl ester and o-tolyl isothiocyanate (Meilun Biotech. Co. Ltd., Dalian, China), D-glucose, and L-glucose (Energy Chemical, Shanghai, China) were used. COX inhibitor screening assay kit was purchased from Cayman Chemical Company (Ann Arbor, MI, USA).

The target in test [3] is T2, ovine COX-1 (Ovis aries, UniProt P05979).
T2 sequence (P05979 25-600): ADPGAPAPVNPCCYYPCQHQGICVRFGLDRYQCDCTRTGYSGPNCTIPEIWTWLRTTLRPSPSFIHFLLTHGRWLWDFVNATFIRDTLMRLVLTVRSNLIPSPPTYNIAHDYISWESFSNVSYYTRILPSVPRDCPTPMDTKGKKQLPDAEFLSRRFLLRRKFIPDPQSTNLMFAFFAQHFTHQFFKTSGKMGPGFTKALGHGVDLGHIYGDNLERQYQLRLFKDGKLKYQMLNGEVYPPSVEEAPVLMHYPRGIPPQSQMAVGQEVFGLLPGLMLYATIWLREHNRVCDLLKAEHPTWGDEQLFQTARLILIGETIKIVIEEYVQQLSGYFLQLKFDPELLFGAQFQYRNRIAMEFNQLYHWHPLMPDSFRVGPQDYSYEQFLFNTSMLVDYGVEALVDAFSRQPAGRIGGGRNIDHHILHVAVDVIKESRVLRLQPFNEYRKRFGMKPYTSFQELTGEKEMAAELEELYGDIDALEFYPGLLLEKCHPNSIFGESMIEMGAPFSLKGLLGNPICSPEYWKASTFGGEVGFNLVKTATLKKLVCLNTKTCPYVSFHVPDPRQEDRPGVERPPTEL
Source text: as §1

Regarding `COc1cc(O[C@@H]2O[C@H](CO)[C@@H](O)[C@H](O)[C@H]2O)cc2c1C(=O)C[C@@H](c1ccc(O)cc1)O2` [Compound 1, hostaflavanone A], the half-inhibitory concentration (IC50) (usually the concentration that inhibits the measured activity by half) was found to be 83.2 ± 3 µM in test [1], 45.4 ± 3.3 µM in test [2] and 21.6 ± 1.2 µM in test [3].
As to `OC[C@H]1O[C@@H](OCCc2ccccc2)[C@H](O)[C@@H](O)[C@@H]1O` [Compound 4, phenethyl-O-β-D-glucopyranoside], the IC50 in test [1] amounted to 282 ± 5.2 µM; in test [2], 38.2 ± 3.9 µM; in test [3] it was 15.5 ± 0.6 µM.
With `OC[C@H]1O[C@@H](OC[C@H]2O[C@@H](OCCc3ccccc3)[C@H](O)[C@@H](O)[C@@H]2O)[C@H](O)[C@@H](O)[C@@H]1O` [Compound 5, phenethanol-β-D-gentiobioside], the values for the 50% inhibitory concentration (IC50) in test [1], in test [2] and in test [3] were 257 ± 13.8 µM, 31.7 ± 2.9 µM and 38.4 ± 1.3 µM, respectively.
For `C[C@@H]1O[C@@H](OC[C@H]2O[C@@H](OCCc3ccccc3)[C@H](O)[C@@H](O)[C@@H]2O)[C@H](O)[C@H](O)[C@H]1O` [Compound 6, phenethyl-O-rutinoside] the same measures were 275 ± 14.8 µM, 35.4 ± 1.6 µM and 41.2 ± 1.5 µM.
Compound `O=C1O[C@H]([C@@H](O)CO)C(O)=C1O` [L-ascorbic acid, reference compound] returned an IC50 in test [1] of 33.9 ± 1.1 µM.
